Experimental data reported in PubChem BioAssay (NCI).
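Following 48 hours of exposure in 96-well plates, responses at five concentrations were used to interpolate endpoints linearly. Here, GI50 denotes the concentration required for 50% inhibition of growth. TGI: total growth inhibition.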

Columns and labels:
Assay in all cases: NCI tumour cell line growth inhibition, 48 h
[1] = tested on: EKVX NSCLC
[2] = tested on: SK-MEL-5 melanoma
[3] = tested on: HOP-62 NSCLC
[4] = tested on: U251 CNS
[5] = tested on: HCC-2998 colon
[6] = tested on: K-562 leukemia
[7] = tested on: SF-295 CNS
[8] = tested on: SK-MEL-28 melanoma
[9] = tested on: SK-MEL-2 melanoma
[10] = tested on: ACHN renal
[11] = tested on: SNB-19 CNS
[12] = tested on: SF-268 CNS
[13] = tested on: MALME-3M melanoma
[14] = tested on: HL-60(TB) leukemia
[15] = tested on: PC-3 prostate
[16] = tested on: NCI-H23 lung
[17] = tested on: NCI-H460 lung
[18] = tested on: DU-145 prostate
[19] = tested on: OVCAR-3 ovarian
[20] = tested on: COLO 205 colon
[21] = tested on: MOLT-4 leukemia
[22] = tested on: NCI/ADR-RES ovarian
[23] = tested on: SW-620 colon
[24] = tested on: MDA-MB-435
[25] = tested on: BT-549 breast
[26] = tested on: CCRF-CEM leukemia
[27] = tested on: CAKI-1 renal
[28] = tested on: OVCAR-5 ovarian
[29] = tested on: A498 renal

For CC(=O)OC[C@]1(C)C=C2C(=O)[C@](C)(O)C3(CC3)C(C)=C2[C@H]1O, the GI50 [1] was 252 nM, the TGI [1] was 1200 nM and the GI50 [2] was 137 nM. It also gave a TGI [2] of 300 nM, a GI50 [3] of 239 nM and a TGI [3] of 1230 nM. The GI50 [4] was 68 nM, the TGI [4] was 6160 nM and the GI50 [5] was 98.5 nM. It also gave a TGI [5] of 353 nM, a GI50 [6] of 131 nM and a TGI [6] of over 100000 nM. It also gave a GI50 [7] of 131 nM, a TGI [7] of 1560 nM and a GI50 [8] of 215 nM. It also gave a TGI [8] of 575 nM, a GI50 [9] of 127 nM and a TGI [9] of 345 nM. It also gave a GI50 [10] of 22.1 nM, a TGI [10] of 50.1 nM and a GI50 [11] of 193 nM. It also gave a TGI [11] of 1280 nM, a GI50 [12] of 38.4 nM and a TGI [12] of 499 nM. For the same compound, the GI50 [13] was 124 nM, the TGI [13] was 302 nM and the GI50 [14] was 86.1 nM. For the same compound, the TGI [14] was 852 nM, the GI50 [15] was 135 nM and the TGI [15] was 1290 nM. It also gave a GI50 [16] of 63.3 nM, a TGI [16] of 367 nM and a GI50 [17] of 28.2 nM. For the same compound, the TGI [17] was 84.4 nM, the GI50 [18] was 36 nM and the GI50 [19] was 42.4 nM. The TGI [19] was 417 nM, the GI50 [20] was 110 nM and the TGI [20] was 308 nM. For the same compound, the GI50 [21] was 62.9 nM, the TGI [21] was over 100000 nM and the GI50 [22] was 77.2 nM. For the same compound, the TGI [22] was 804 nM, the GI50 [23] was 44 nM and the TGI [23] was over 50000 nM. It also gave a GI50 [24] of 136 nM, a TGI [24] of 587 nM and a GI50 [25] of 148 nM. The TGI [25] was 556 nM, the GI50 [26] was 206 nM and the TGI [26] was over 100000 nM. For the same compound, the GI50 [27] was 41 nM, the TGI [27] was 2580 nM and the GI50 [28] was 66.6 nM. For the same compound, the TGI [28] was 506 nM, the GI50 [29] was 148 nM and the TGI [29] was 366 nM.
